Results taken from paper PMC9851200, “Multiparameter phenotypic screening for endogenous TFEB and TFE3 translocation identifies novel chemical series modulating lysosome function” (Autophagy, 2022).
Read-outs that look alike come from different tables or passages of the source.

Legend:
[1] = system: endogenous TFEB; test: TFEB nuclear translocation, immunocytochemistry high-content imaging; format: cell-based; conditions: PKIS2 primary screening
[2] = system: SH-SY5Y cells; conditions: PKIS2 primary screening; note: reference of the scale not given here
[3] = system: SH-SY5Y cells; conditions: human; note: reference of the scale not given here
[4] = system: SH-SY5Y cells; test: AK (adenylate kinase) release ToxiLight cytotoxicity assay; conditions: PKIS2 primary screening; note: reference of the scale not given here
[5] = system: endogenous TFE3; test: TFE3 nuclear translocation, immunocytochemistry high-content imaging; format: cell-based; conditions: PKIS2 primary screening
[6] = system: SH-SY5Y cells; test: Chemotype enrichment analysis of PKIS2 primary screen hit categories; conditions: PKIS2 primary screening, hit category
[7] = system: SH-SY5Y cells; test: Nuclear count from microscopy images (cellular growth and toxicity); conditions: PKIS2 primary screening; note: reference of the scale not given here

| Compound | TFEB % [1] | DQ Intensity [2] | DQ Spot [2] | Nuclear Count [3] | AK [4] | TFE3 % [5] | DQ Intensity ([2]; DQ Red BSA intensity) | DQ Spot ([2]; DQ Red BSA spot count) | Outcome [6] | Nuclear Count [7] |
| --- | --- | --- | --- | --- | --- | --- | --- | --- | --- | --- |
| CC(C)Oc1ccc2c(-c3ccnc(Nc4ccc(N5CCN(C)CC5)cc4)n3)cnn2n1 [UNC10225414A] | 3.20% | 74.33 | 86.73 | 127.68 | 109.44 | 8.69% | – | – | – | – |
| CCCCc1nn2ncccc2c1-c1ccnc(Nc2ccc(N3CCN(C)CC3)cc2)n1 [UNC10225453A] | 12.73% | 158.78 | 101.42 | 74.87 | 108.81 | 20.14% | – | – | – | – |
| Cl.Cl.NC[C@H](CC1CCCCC1)NC(=O)c1cc(Br)c(-c2ccnc3[nH]ccc23)s1 [UNC10225276A] | 12.93% | – | – | – | 108.11 | 33.43% | 221.52 | 71.17 | TFEB/3 + DQ Int | 101.96 |
| Nc1ncc(-c2ccc3nccc(-c4ccncc4)c3c2)cc1S(=O)(=O)N1CCOCC1 [UNC10225011A] | 0.58% | – | – | – | 92.69 | 1.48% | 150.72 | 94.12 | DQ Only | 96.85 |
| Fc1cc(Cl)ccc1Nc1ccnc2cc(-c3ccc(CN4CCSCC4)o3)ccc12 [UNC10225290A] | 9.12% | – | – | – | 104.94 | 15.63% | 59.38 | 53.95 | LYSO TOXIC | 127.72 |
| Fc1cccc(COc2ccc(Nc3ncnc4nn5ccccc5c34)cc2Cl)c1 [UNC10225319A] | 3.13% | – | – | – | 110.07 | 21.26% | 134.45 | 139.92 | TFE3 + DQ | 77.83 |
| Cl.Cl.NC[C@H](CC1CCCCC1)NC(=O)c1ccc(-c2ccnc3[nH]ccc23)s1 [UNC10225041A] | 14.98% | – | – | – | 135.71 | 16.73% | 229.52 | 72.59 | TFEB + DQ Int | 83.64 |
| Cl.Nc1ncnc2occ(-c3ccc(NC(=O)Nc4cc(C(F)(F)F)ccc4F)cc3)c12 [UNC10112792A] | 5.26% | – | – | – | 84.72 | 17.19% | 73.11 | 78.83 | LYSO TOXIC | 92.62 |
| CS(=O)(=O)CCNCc1ccc(-c2ccc3ncnc(Nc4ccc(OCc5ccccc5)c(Cl)c4)c3c2)o1.Cl [UNC10112604A] | 8.74% | – | – | – | 78.47 | 24.66% | 133.51 | 89.48 | TFE3 | 96.24 |
| Cl.Cl.NC[C@H](Cc1ccc(C(F)(F)F)cc1)NC(=O)c1cc(Br)c(-c2ccnc3[nH]ccc23)s1 [UNC10225108A] | 5.26% | – | – | – | 105.44 | 23.22% | 147.21 | 85.33 | TFE3 | 144.66 |
| Cl.Cl.NCC(C(=O)Nc1cc(Br)c(-c2ccnc3[nH]ccc23)s1)c1ccccc1 (stereo not drawn) [UNC10225027A] | 6.97% | – | – | – | 80.33 | 26.86% | 115.17 | 95.94 | TFE3 | 108.23 |
| COc1cc2ncnc(Nc3ccc4nc(-c5ccccc5)[nH]c4c3)c2cc1OC.Cl [UNC10225504A] | 2.24% | – | – | – | 94.98 | 30.79% | 98.46 | 113.89 | TFE3 | 107.73 |
| Cc1ccc(C(=O)Nc2ccc(Nc3ccnc4cc(-c5nccs5)ccc34)cc2O)cc1.Cl [UNC10225432A] | 8.56% | – | – | – | 74.29 | 56.52% | 38.26 | 36.88 | LYSO TOXIC | 89.90 |
| C=CC(=O)Nc1cc2c(Nc3ccc(F)c(Cl)c3)ncnc2cc1OCCCN1CCOCC1 [UNC10126563B] | 7.79% | – | – | – | 149.52 | 16.19% | 67.23 | 74.22 | TOXIC | 114.57 |
